Where two headings read alike, the source gives them in different places.
Legend:
[1] = system: 5HT uptake; format: biochemical, rat
[2] = system: NA uptake; format: biochemical, rat

CN(C)C1(c2ccccn2)CCC(CC(=O)NCCc2c[nH]c3ccccc23)CC1.Cl (centres unmarked) [Example 47, 2-(4-Dimethylamino-4-pyridin-2-ylcyclohexyl)-N-[2-(1H-indol-3-yl)ethyl]acetamide hydrochloride]
5HT uptake % (10) ([1]; hydrochloride): 46% | NA uptake % (10) ([2]; hydrochloride): 63% | melting point: 150 to 153 °C

CN(C)C1(c2ccccn2)CCC(CC(=O)NCCc2c[nH]c3ccccc23)CC1.Cl (centres unmarked) [Example 48, 2-(4-Dimethylamino-4-pyridin-2-ylcyclohexyl)-N-[2-(1H-indol-3-yl)ethyl]acetamide hydrochloride]
5HT uptake % (10) ([1]; hydrochloride): 85% | NA uptake % (10) ([2]; hydrochloride): 74%

CN(C)C1(c2ccccn2)CCC(CC(=O)NCCCc2ccccc2)CC1.Cl (centres unmarked) [Example 49, 2-(4-Dimethylamino-4-pyridin-2-ylcyclohexyl)-N-(3-phenylpropyl)acetamide hydrochloride]
5HT uptake % (10) [1]: 32% | NA uptake % (10) [2]: 94% | melting point: 218 to 220 °C

Reference: patent publication US8017630B2 (priority 2004, dated 2011)
